Assays:
Assay type in all cases: cell-based
[1] = target: T1, signal peptidase IB (SpsB) (Staphylococcus aureus, UniProt P0A070); assay: FRET substrate cleavage assay with SpsB (activation)
T1 sequence (P0A070 1-191): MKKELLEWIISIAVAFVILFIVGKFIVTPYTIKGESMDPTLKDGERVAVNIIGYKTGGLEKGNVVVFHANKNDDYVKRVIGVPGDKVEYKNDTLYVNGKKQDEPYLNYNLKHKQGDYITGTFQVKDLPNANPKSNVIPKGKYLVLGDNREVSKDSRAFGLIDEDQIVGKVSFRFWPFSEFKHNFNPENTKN

[2] = target: signal peptidase IB (SpsB) (Staphylococcus aureus, UniProt P0A070, Q165A); assay: enzyme turnover assay with SpsB mutant (activation retained)
[3] = target: signal peptidase IB (SpsB) (Staphylococcus aureus, UniProt P0A070); assay: FRET substrate cleavage assay with membrane-bound SpsB (activation); supported by competition of photoprobe labelling in cells and loss of activation in pocket mutants

| SMILES | FRET substrate cleavage assay with SpsB (activation) [1] | enzyme turnover assay with SpsB mutant (activation retained) [2] | % [3] |
| --- | --- | --- | --- |
| N=C(N)NCc1ccc(-c2ccc(Br)cc2)s1 [D10] | Further structural derivatives (D10, D14, and D16) also showed SpsB activation in the FRET assay |  |  |
| NCc1ccc(-c2ccc(Br)cc2)o1 [D14] | Further structural derivatives (D10, D14, and D16) also showed SpsB activation in the FRET assay |  |  |
| Nc1nccn1Cc1ccc(-c2ccc(Br)cc2)o1 [D16] | Further structural derivatives (D10, D14, and D16) also showed SpsB activation in the FRET assay |  |  |
| N=C(N)NCc1ccc(-c2ccc(Br)cc2)o1 [L15] |  | while Q165A, a control mutation that does not affect binding, still showed activation | ~ 150% |

Reference: publication PMC11350587, “Screening Privileged Alkyl Guanidinium Motifs under Host-Mimicking Conditions Reveals a Novel Antibiotic with an Unconventional Mode of Action” (JACS Au, 2024)
